Molecular target: T1, F508del (Homo sapiens, UniProt P13569, DEL508-508)
T1 construct: expressed in transfected cells
Test: Protocol 1: membrane potential optical assay (FLIPR III, voltage sensing dye), identification of potentiator compounds
Type: cell-based
Settings: Table 3, compounds of Table 1
Procedure, shortened: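 Read-out: change in voltage-sensing dye fluorescence (FLIPR III) as a measure of F508del conductance. Temperature-corrected (27° C, 24 hrs) NIH 3T3 cells expressing F508del are pretreated with potentiators, dye-loaded, then stimulated with forskolin under a chloride ion gradient using chloride-free gluconate bath.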

T1 sequence (P13569 with tags, fused parts or gaps DEL508-508): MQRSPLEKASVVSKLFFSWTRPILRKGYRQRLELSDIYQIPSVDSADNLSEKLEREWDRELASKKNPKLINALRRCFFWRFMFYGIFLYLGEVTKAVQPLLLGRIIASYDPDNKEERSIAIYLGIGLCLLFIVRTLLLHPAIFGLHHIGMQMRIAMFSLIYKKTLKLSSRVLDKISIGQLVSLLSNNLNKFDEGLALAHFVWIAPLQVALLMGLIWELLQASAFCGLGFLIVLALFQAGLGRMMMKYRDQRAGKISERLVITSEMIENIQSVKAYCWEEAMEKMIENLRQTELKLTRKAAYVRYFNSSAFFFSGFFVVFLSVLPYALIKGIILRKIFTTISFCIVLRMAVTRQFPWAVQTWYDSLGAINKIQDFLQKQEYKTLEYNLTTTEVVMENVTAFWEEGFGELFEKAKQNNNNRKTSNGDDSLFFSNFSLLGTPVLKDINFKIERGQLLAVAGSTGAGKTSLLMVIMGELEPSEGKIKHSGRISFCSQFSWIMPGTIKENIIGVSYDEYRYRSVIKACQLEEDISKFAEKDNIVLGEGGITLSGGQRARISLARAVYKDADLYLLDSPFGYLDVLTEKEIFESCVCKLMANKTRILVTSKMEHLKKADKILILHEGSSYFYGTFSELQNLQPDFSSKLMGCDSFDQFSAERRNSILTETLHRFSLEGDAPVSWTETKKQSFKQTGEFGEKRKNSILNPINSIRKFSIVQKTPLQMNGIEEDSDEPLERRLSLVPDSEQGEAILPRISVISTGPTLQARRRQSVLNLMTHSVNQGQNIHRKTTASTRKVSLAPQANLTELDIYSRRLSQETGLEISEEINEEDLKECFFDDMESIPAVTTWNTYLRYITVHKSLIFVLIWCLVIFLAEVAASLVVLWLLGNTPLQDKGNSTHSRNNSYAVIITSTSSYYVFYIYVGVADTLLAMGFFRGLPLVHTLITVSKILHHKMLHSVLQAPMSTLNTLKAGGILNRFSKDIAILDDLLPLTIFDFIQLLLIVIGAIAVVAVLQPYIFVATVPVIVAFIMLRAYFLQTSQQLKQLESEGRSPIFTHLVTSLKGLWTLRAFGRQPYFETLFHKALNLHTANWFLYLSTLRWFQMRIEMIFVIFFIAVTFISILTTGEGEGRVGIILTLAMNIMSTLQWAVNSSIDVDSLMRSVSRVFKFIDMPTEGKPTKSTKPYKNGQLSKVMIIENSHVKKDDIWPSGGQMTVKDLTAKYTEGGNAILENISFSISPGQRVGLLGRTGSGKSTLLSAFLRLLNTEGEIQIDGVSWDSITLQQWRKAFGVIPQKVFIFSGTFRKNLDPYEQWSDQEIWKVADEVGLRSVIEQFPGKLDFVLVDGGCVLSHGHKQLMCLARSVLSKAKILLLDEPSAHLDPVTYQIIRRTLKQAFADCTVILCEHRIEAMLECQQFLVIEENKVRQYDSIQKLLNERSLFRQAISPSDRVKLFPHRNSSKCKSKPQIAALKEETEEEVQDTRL

Row | Structure (SMILES) | EC30
1 | C[C@@H]1CN(c2ncccc2C(=O)NS(=O)(=O)c2cccc(N)n2)C(C)(C)C1 [Compound 946, N-[(6-amino-2-pyridyl)sulfonyl]-2-[(4S)-2,2,4-trimethylpyrrolidin-1-yl]pyridine-3-carboxamide] | ++ (“++” means between 3 uM and 10 uM)
2 | COc1cccc(S(=O)(=O)NC(=O)C2Cc3ccccc3CCN2Cc2c(C)cc(C)cc2C)n1 (centres unmarked) [Compound 948, N-[(6-methoxy-2-pyridyl)sulfonyl]-3-[(2,4,6-trimethylphenyl)methyl]-1,2,4,5-tetrahydro-3-benzazepine-4-carboxamide] | +++ (“+++” means <3 uM)
3 | CC1CN(c2nc(-c3cccc(NC(C)C)n3)ccc2C(=O)NS(=O)(=O)c2cccc(N)n2)C(C)(C)C1 (centres unmarked) [Compound 951, N-[(6-amino-2-pyridyl)sulfonyl]-6-[6-(isopropylamino)-2-pyridyl]-2-(2,2,4-trimethylpyrrolidin-1-yl)pyridine-3-carboxamide] | +++ (“+++” means <3 uM)
4 | CC(C)COc1cc(F)cc(-c2ccc(C(=O)NS(=O)(=O)c3ccn[nH]3)c(N3CCC(C)(C)C3C)n2)c1 (centres unmarked) [Compound 952, 6-(3-fluoro-5-isobutoxy-phenyl)-N-(1H-pyrazol-5-ylsulfonyl)-2-(2,3,3-trimethylpyrrolidin-1-yl)pyridine-3-carboxamide] | +++ (“+++” means <3 uM)
5 | CC(C)COc1cc(F)cc(-c2ccc(C(=O)NS(=O)(=O)c3cccc(N)n3)c(N3CCCC4(CC4)C3)n2)c1 [Compound 953, N-[(6-amino-2-pyridyl)sulfonyl]-2-(7-azaspiro[2.5]octan-7-yl)-6-(3-fluoro-5-isobutoxy-phenyl)pyridine-3-carboxamide] | +++ (“+++” means <3 uM)
6 | C#CC1CCCN(c2nc(-c3ccc(OC(C)C)nc3)ccc2C(=O)NS(=O)(=O)c2cccc(N)n2)C1 (centres unmarked) [Compound 954, N-[(6-amino-2-pyridyl)sulfonyl]-2-(3-ethynyl-1-piperidyl)-6-(6-isopropoxy-3-pyridyl)pyridine-3-carboxamide] | +++ (“+++” means <3 uM)
7 | CC(C)COc1cccc(-c2ccc(C(=O)NS(=O)(=O)c3cccc(N)n3)c(N3[C@H](C)CC[C@@H]3C)n2)c1 [Compound 957, N-[(6-amino-2-pyridyl)sulfonyl]-2-[(2S,5R)-2,5-dimethylpyrrolidin-1-yl]-6-(3-isobutoxyphenyl)pyridine-3-carboxamide] | +++ (“+++” means <3 uM)
8 | CC(C)COc1cccc(-c2ccc(C(=O)NS(=O)(=O)c3ccc[nH]c3=O)c(N3CCC(C)CC3)n2)c1 [Compound 958, 6-(3-isobutoxyphenyl)-2-(4-methyl-1-piperidyl)-N-[(2-oxo-1H-pyridin-3-yl)sulfonyl]pyridine-3-carboxamide] | +++ (“+++” means <3 uM)
9 | CC(C)COc1cc(F)cc(-c2ccc(C(=O)NS(=O)(=O)c3cccc(N)n3)c(OC3CCC(F)(F)CC3)n2)c1 [Compound 961, N-[(6-amino-2-pyridyl)sulfonyl]-2-(4,4-difluorocyclohexoxy)-6-(3-fluoro-5-isobutoxy-phenyl)pyridine-3-carboxamide] | +++ (“+++” means <3 uM)
10 | CCCCOc1cccc(-c2ccc(C(=O)NS(=O)(=O)c3ccc[nH]c3=O)c(Oc3c(C)cc(C)cc3C)n2)c1Cl [Compound 964, 6-(3-butoxy-2-chloro-phenyl)-N-[(2-oxo-1H-pyridin-3-yl)sulfonyl]-2-(2,4,6-trimethylphenoxy)pyridine-3-carboxamide] | +++ (“+++” means <3 uM)
11 | CC1CN(c2nc(-c3cnc(OC(C)C)cn3)ccc2C(=O)NS(=O)(=O)c2cccc(N)n2)C(C)(C)C1 (centres unmarked) [Compound 965, N-[(6-amino-2-pyridyl)sulfonyl]-6-(5-isopropoxypyrazin-2-yl)-2-(2,2,4-trimethylpyrrolidin-1-yl)pyridine-3-carboxamide] | +++ (“+++” means <3 uM)
12 | CC(C)COc1cc(F)cc(-c2ccc(C(=O)NS(=O)(=O)c3cccc(N)n3)c(OC(C)Cc3ccccc3)n2)c1 (centres unmarked) [Compound 967, N-[(6-amino-2-pyridyl)sulfonyl]-6-(3-fluoro-5-isobutoxy-phenyl)-2-(1-methyl-2-phenyl-ethoxy)pyridine-3-carboxamide] | +++ (“+++” means <3 uM)
13 | CC(C)COc1cc(F)cc(-c2ccc(C(=O)NS(=O)(=O)c3cccc(N)n3)c(N3CCC(Cc4ccccc4)C3C)n2)c1 (centres unmarked) [Compound 969, N-[(6-amino-2-pyridyl)sulfonyl]-2-(3-benzyl-2-methyl-pyrrolidin-1-yl)-6-(3-fluoro-5-isobutoxy-phenyl)pyridine-3-carboxamide] | +++ (“+++” means <3 uM)
14 | CCC1(CC)CCCN(c2nc(-c3ccc(OC(C)C)nc3)ccc2C(=O)NS(=O)(=O)c2cccc(N)n2)C1 [Compound 971, N-[(6-amino-2-pyridyl)sulfonyl]-2-(3,3-diethyl-1-piperidyl)-6-(6-isopropoxy-3-pyridyl)pyridine-3-carboxamide] | +++ (“+++” means <3 uM)
15 | CC(C)COc1cc(F)cc(-c2ccc(C(=O)NS(=O)(=O)c3cccc(N)n3)c(N3CCC4(CC3)CC4)n2)c1 [Compound 973, N-[(6-amino-2-pyridyl)sulfonyl]-2-(6-azaspiro[2.5]octan-6-yl)-6-(3-fluoro-5-isobutoxy-phenyl)pyridine-3-carboxamide] | +++ (“+++” means <3 uM)
16 | COCC1CCN(c2nc(-c3cc(F)cc(OCC(C)C)c3)ccc2C(=O)NS(=O)(=O)c2ccn[nH]2)CC1 [Compound 975, 6-(3-fluoro-5-isobutoxy-phenyl)-2-[4-(methoxymethyl)-1-piperidyl]-N-(1H-pyrazol-5-ylsulfony)pyridine-3-carboxamide] | ++ (“++” means between 3 uM and 10 uM)

More lines, now with the values ahead:

Row | EC30 | Structure (SMILES)
17 | +++ (“+++” means <3 uM) | Cc1cc(C)c(Oc2nc(C(C)(C)C)ccc2C(=O)NS(=O)(=O)c2cccc(NCCN(C)C)n2)c(C)c1 [Compound 947, 6-tert-butyl-N-[[6-(2-dimethylaminoethylamino)-2-pyridyl]sulfonyl]-2-(2,4,6-trimethylphenoxy)pyridine-3-carboxamide]
18 | +++ (“+++” means <3 uM) | CC(C)Oc1ccc(-c2ccc(C(=O)NS(=O)(=O)c3cccc(N)n3)c(N3C[C@H](C)CC3(C)C)n2)cn1 [Compound 949, N-[(6-amino-2-pyridyl)sulfonyl]-6-(6-isopropoxy-3-pyridyl)-2-[(4R)-2,2,4-trimethylpyrrolidin-1-yl]pyridine-3-carboxamide]
19 | +++ (“+++” means <3 uM) | COc1ccc(-c2ccc(C(=O)NS(=O)(=O)c3cccc(N)n3)c(Oc3c(C)cc(C)cc3C)n2)c(OC)c1 [Compound 950, N-[(6-amino-2-pyridyl)sulfonyl]-6-(2,4-dimethoxyphenyl)-2-(2,4,6-trimethylphenoxy)pyridine-3-carboxamide]
20 | ++ (“++” means between 3 uM and 10 uM) | CCCOc1cccc(-c2ccc(C(=O)NS(=O)(=O)c3ccc[nH]c3=O)c(Oc3c(C)cc(C)cc3C)n2)c1Cl [Compound 955, 6-(2-chloro-3-propoxy-phenyl)-N-[(2-oxo-1H-pyridin-3-yl)sulfonyl]-2-(2,4,6-trimethylphenoxy)pyridine-3-carboxamide]
21 | +++ (“+++” means <3 uM) | COc1ccc(-c2ccc(C(=O)NS(=O)(=O)c3cccc(N)n3)c(Oc3c(C)cc(C)cc3C)n2)c(F)c1 [Compound 956, N-[(6-amino-2-pyridyl)sulfonyl]-6-(2-fluoro-4-methoxy-phenyl)-2-(2,4,6-trimethylphenoxy)pyridine-3-carboxamide]
22 | +++ (“+++” means <3 uM) | COc1cc(C(C)(C)C)nc(Oc2c(C)cc(C)cc2C)c1C(=O)NS(=O)(=O)c1cccc(N)c1 [Compound 959, N-(3-aminophenyl)sulfonyl-6-tert-butyl-4-methoxy-2-(2,4,6-trimethylphenoxy)pyridine-3-carboxamide]
23 | ++ (“++” means between 3 uM and 10 uM) | CCOC1CCCN(c2nc(-c3ccc(OC(C)C)nc3)ccc2C(=O)NS(=O)(=O)c2cccc(N)n2)C1 (centres unmarked) [Compound 960, N-[(6-amino-2-pyridyl)sulfonyl]-2-(3-ethoxy-1-piperidyl)-6-(6-isopropoxy-3-pyridyl)pyridine-3-carboxamide]
24 | ++ (“++” means between 3 uM and 10 uM) | Cc1cc(C)c(Oc2nc(-c3ccc(CN(C)C)cc3)ccc2C(=O)NS(=O)(=O)c2cccc(N)n2)c(C)c1 [Compound 962, N-[(6-amino-2-pyridyl)sulfonyl]-6-[4-(dimethylaminomethyl)phenyl]-2-(2,4,6-trimethylphenoxy)pyridine-3-carboxamide]
25 | ++ (“++” means between 3 uM and 10 uM) | CCc1ccc(C(=O)NS(=O)(=O)c2cccc(N)n2)c(Oc2c(C)cc(C)cc2C)n1 [Compound 963, N-[(6-amino-2-pyridyl)sulfonyl]-6-ethyl-2-(2,4,6-trimethylphenoxy)pyridine-3-carboxamide]
26 | + (“+” means greater than 10 uM) | Cc1cc(C)c(Oc2nc(N3CCOCC3)ccc2C(=O)NS(=O)(=O)c2cccc(N)n2)c(C)c1 [Compound 966, N-[(6-amino-2-pyridyl)sulfonyl]-6-morpholino-2-(2,4,6-trimethylphenoxy)pyridine-3-carboxamide]
27 | +++ (“+++” means <3 uM) | Cc1cc(C)c(Oc2nc(OC(C)C)ccc2C(=O)NS(=O)(=O)c2cccc(N)n2)c(C)c1 [Compound 968, N-[(6-amino-2-pyridyl)sulfonyl]-6-isopropoxy-2-(2,4,6-trimethylphenoxy)pyridine-3-carboxamide]
28 | +++ (“+++” means <3 uM) | CC1CN(c2nc(-c3cc(F)cc(OC(C)C)c3)ccc2C(=O)NS(=O)(=O)c2cccc(N)n2)C(C)(C)C1 (centres unmarked) [Compound 972, N-[(6-amino-2-pyridyl)sulfonyl]-6-(3-fluoro-5-isopropoxy-phenyl)-2-(2,2,4-trimethylpyrrolidin-1-yl)pyridine-3-carboxamide]
29 | +++ (“+++” means <3 uM) | Cc1cc(C)c(Oc2nc(-c3cccc4c3OCO4)ccc2C(=O)NS(=O)(=O)c2cccc(N)n2)c(C)c1 [Compound 974, N-[(6-amino-2-pyridyl)sulfonyl]-6-(1,3-benzodioxol-4-yl)-2-(2,4,6-trimethylphenoxy)pyridine-3-carboxamide]
